Test system: SEM cells
Experiment: cell viability relative to DMSO control; higher = less cytotoxic
Details: 48 h
Summary of the method: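 In 1536-well plates, 5 μl of leukemia cells were seeded per well: 500 cells/well for NOMO1 or SEM and 1000 cells/well for P12-Ichikawa. Each line had first been adapted for at least four passages in each medium. Library compounds in DMSO were pin-dosed at 11 threefold concentrations between 47 μM and 0.79 nM, and CellTiter-Glo One luminescence was read after 48 h at 37°C. Viability is a per-plate percentage relative to DMSO wells, with cell-free wells as background.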

[1] = HPLM + 10% dialyzed FBS, 0.000781 µM
[2] = HPLM + 10% dialyzed FBS, 0.00234 µM
[3] = HPLM + 10% dialyzed FBS, 0.00702 µM
[4] = HPLM + 10% dialyzed FBS, 0.0211 µM
[5] = HPLM + 10% dialyzed FBS, 0.0632 µM
[6] = HPLM + 10% dialyzed FBS, 0.19 µM
[7] = HPLM + 10% dialyzed FBS, 0.569 µM
[8] = HPLM + 10% dialyzed FBS, 1.71 µM
[9] = HPLM + 10% dialyzed FBS, 5.12 µM
[10] = HPLM + 10% dialyzed FBS, 15.4 µM
[11] = HPLM + 10% dialyzed FBS, 46.1 µM
[12] = RPMI 5 mM glucose + 10% FBS, 0.000781 µM
[13] = RPMI 5 mM glucose + 10% FBS, 0.00234 µM
[14] = RPMI 5 mM glucose + 10% FBS, 0.00702 µM
[15] = RPMI 5 mM glucose + 10% FBS, 0.0211 µM
[16] = RPMI 5 mM glucose + 10% FBS, 0.0632 µM
[17] = RPMI 5 mM glucose + 10% FBS, 0.19 µM
[18] = RPMI 5 mM glucose + 10% FBS, 0.569 µM
[19] = RPMI 5 mM glucose + 10% FBS, 1.71 µM
[20] = RPMI 5 mM glucose + 10% FBS, 5.12 µM
[21] = RPMI 5 mM glucose + 10% FBS, 15.4 µM
[22] = RPMI 5 mM glucose + 10% FBS, 46.1 µM
[23] = RPMI 5 mM glucose + 10% dialyzed FBS, 0.000781 µM
[24] = RPMI 5 mM glucose + 10% dialyzed FBS, 0.00234 µM
[25] = RPMI 5 mM glucose + 10% dialyzed FBS, 0.00702 µM
[26] = RPMI 5 mM glucose + 10% dialyzed FBS, 0.0211 µM
[27] = RPMI 5 mM glucose + 10% dialyzed FBS, 0.0632 µM
[28] = RPMI 5 mM glucose + 10% dialyzed FBS, 0.19 µM
[29] = RPMI 5 mM glucose + 10% dialyzed FBS, 0.569 µM
[30] = RPMI 5 mM glucose + 10% dialyzed FBS, 1.71 µM
[31] = RPMI 5 mM glucose + 10% dialyzed FBS, 5.12 µM
[32] = RPMI 5 mM glucose + 10% dialyzed FBS, 15.4 µM
[33] = RPMI 5 mM glucose + 10% dialyzed FBS, 46.1 µM

SMILES | cell viability [1] [%] | cell viability [2] [%] | cell viability [3] [%] | cell viability [4] [%] | cell viability [5] [%] | cell viability [6] [%] | cell viability [7] [%] | cell viability [8] [%] | cell viability [9] [%] | cell viability [10] [%] | cell viability [11] [%] | cell viability [12] [%] | cell viability [13] [%] | cell viability [14] [%] | cell viability [15] [%] | cell viability [16] [%] | cell viability [17] [%] | cell viability [18] [%] | cell viability [19] [%] | cell viability [20] [%] | cell viability [21] [%] | cell viability [22] [%] | cell viability [23] [%] | cell viability [24] [%] | cell viability [25] [%] | cell viability [26] [%] | cell viability [27] [%] | cell viability [28] [%] | cell viability [29] [%] | cell viability [30] [%] | cell viability [31] [%] | cell viability [32] [%] | cell viability [33] [%]
Nc1n[nH]c2nnc(-c3c(-c4ccccc4)nn4ccccc34)cc12 | 93.5 | 109 | 109 | 115 | 116 | 127 | 124 | 109 | 113 | 92.2 | 9.4 | 113 | 114 | 107 | 121 | 122 | 131 | 121 | 117 | 117 | 100 | 17.3 | 116 | 102 | 119 | 126 | 114 | 125 | 134 | 123 | 137 | 116 | 21
C[C@H](NC(=O)Cc1cc(F)cc(F)c1)C(=O)N[C@H](C(=O)OC(C)(C)C)c1ccccc1 | 100 | 96.2 | 91.7 | 89.2 | 102 | 69.9 | 92.1 | 85.6 | 79.7 | 87.9 | 70.2 | 103 | 92.3 | 98.3 | 105 | 107 | 87.3 | 96.5 | 88.6 | 102 | 88.7 | 71.4 | 90.6 | 91.6 | 80.6 | 103 | 96.9 | 89.2 | 91.3 | 79.6 | 74.7 | 86.9 | 70.3
O=C1NC(=O)/C(=C/c2ccc3nccnc3c2)S1 | 117 | 123 | 128 | 114 | 120 | 113 | 109 | 105 | 97 | 104 | 102 | 120 | 136 | 115 | 126 | 136 | 120 | 128 | 115 | 73 | 99.5 | 103 |  |  |  |  |  |  |  |  |  |  | 
CN1CCc2c(c3ccccc3n2Cc2ccc(C(=O)NO)cc2)C1 | 81.4 | 76.1 | 79.7 | 95.4 | 84.2 | 79.2 | 70.7 | 83.9 | 88.3 | 25.2 | 11.7 | 87.3 | 78.9 | 88.5 | 92.9 | 84.8 | 78 | 57.5 | 97.3 | 88.3 | 38.6 | 26.2 | 76.7 | 60.4 | 67 | 78.4 | 69.5 | 61.2 | 58.1 | 77.2 | 94.6 | 32 | 22.6
COc1cc2c(cc1OC)[C@@H]1Cc3ccc(OC)c(OC)c3CN1CC2 | 94.1 | 123 | 118 | 123 | 114 | 119 | 121 | 122 | 117 | 109 | 109 | 110 | 108 | 103 | 111 | 104 | 109 | 99.3 | 93.9 | 99.4 | 102 | 78.4 | 97.9 | 108 | 113 | 112 | 129 | 124 | 108 | 133 | 122 | 120 | 82.2
C[C@@H]1[C@H]\2[C@H](O)[C@H]3[C@H](N(C)C)\C(=C(C(N)=O)/C(=O)[C@@]3(O)\C(=C2C(=O)C4=C(O)C=CC=C14)O)O |  |  |  |  |  |  |  |  |  |  |  | 115 | 131 | 110 | 127 | 109 | 145 | 122 | 121 | 126 | 102 | 123 | 123 | 122 | 123 | 122 | 108 | 133 | 149 | 144 | 113 | 89.9 | 93.4
CC1(C)SCCN([S+](=O)([O-])c2ccc(OCC#CCO)cc2)[C@H]1C(=O)NO | 97.8 | 96.3 | 109 | 112 | 104 | 99.6 | 102 | 89.5 | 91.3 | 86.6 | 80.8 | 129 | 116 | 115 | 123 | 109 | 107 | 105 | 104 | 106 | 91.4 | 88.1 | 105 | 109 | 105 | 103 | 91.1 | 94.3 | 107 | 90.1 | 78.9 | 74.1 | 69.5
COc1ccc(F)c(F)c1C(=O)c1cnc(NC2CCN([S+](C)(=O)[O-])CC2)nc1N | 94.9 | 103 | 109 | 113 | 109 | 113 | 64.6 | 79 | 41.6 | 4.32 | 1.78 | 115 | 130 | 121 | 130 | 123 | 135 | 80.4 | 83.1 | 43.4 | 3.24 | 1.43 | 101 | 97.7 | 111 | 98.2 | 99.3 | 114 | 77.4 | 91.1 | 54.1 | 3.36 | 1.73
CC1(C)CC\C2=C(/O1)C3=C(C=CC=C3)C(=O)C2=O | 103 | 117 | 86.2 | 112 | 113 | 110 | 98.8 | 94.7 | 95 | 78.9 | 4.79 | 127 | 115 | 94.1 | 124 | 129 | 117 | 117 | 102 | 108 | 76.3 | 3.64 | 105 | 121 | 95.4 | 102 | 114 | 119 | 100 | 84.5 | 72.9 | 55.8 | 2.69
CCC(CCCC)COC(=O)C(\C#N)=C(\c1ccccc1)c2ccccc2 (stereo not drawn) | 91.6 | 55.3 | 90.3 | 89.3 | 98.8 | 93.9 | 95.9 | 90.6 | 110 | 99.6 | 86.3 | 79.8 | 44 | 99 | 86.1 | 94.1 | 96.6 | 96.2 | 97.8 | 95.6 | 91.6 | 88.9 | 88.3 | 46.3 | 103 | 99.7 | 99.9 | 90.3 | 107 | 86 | 91.5 | 106 | 107
CC(C)C1CCC(C(=O)N[C@H](Cc2ccccc2)C(=O)O)CC1 (stereo partly drawn) | 92.5 | 93.8 | 91.7 | 108 | 71.1 | 26.3 | 82.7 | 97.6 | 85.2 | 80.3 | 78.5 | 108 | 94.1 | 90 | 112 | 80.9 | 21.2 | 62.7 | 85.6 | 98 | 95.4 | 77.8 | 108 | 104 | 103 | 102 | 75.4 | 21.7 | 84.3 | 88.7 | 98.5 | 93.1 | 96.8
Cc1cc(Nc2cc(N3CCN(C)CC3)nc(/C=C/c3ccccc3)n2)n[nH]1 | 83.9 | 109 | 112 | 96.5 | 95.4 | 60.3 | 36.6 | 6.67 | 5.57 | 4.53 | 5.51 | 86.5 | 108 | 94.1 | 112 | 93.8 | 60.6 | 29.5 | 5.23 | 4.53 | 3.57 | 4.68 | 100 | 112 | 97.1 | 112 | 95.3 | 57.8 | 28.2 | 6.13 | 4.41 | 3.5 | 5.17
Nc1ccc(C(=O)c2cc3c(ccc4ccccc43)[nH]2)cc1 |  |  |  |  |  |  |  |  |  |  |  | 118 | 137 | 124 | 130 | 129 | 102 | 109 | 110 | 32.1 | 15.9 | 8.45 | 121 | 130 | 117 | 126 | 138 | 104 | 100 | 95 | 27.9 | 12.1 | 11.3
O=C(O)CCCCCC(=O)NN=C1CCCC1 | 88.6 | 100 | 99.5 | 104 | 119 | 114 | 114 | 117 | 119 | 110 | 104 | 89.8 | 99.3 | 106 | 104 | 96.1 | 104 | 114 | 113 | 100 | 108 | 93.2 | 100 | 99.2 | 111 | 119 | 120 | 101 | 111 | 128 | 117 | 127 | 110
CO[C@H]1CCC(O[C@H]2C[C@H]([C@]3(C)CC[C@]4(C[C@H](O)[C@@H](C)[C@@H]([C@@H](C)/C=C(\C)C(=O)[C@H](C)C[C@H](C)C(=O)[O-])O4)O3)O[C@]3(O[C@@H]([C@H]4O[C@@](O)(CO)[C@H](C)C[C@@H]4C)C[C@@H]3C)[C@@H]2C)O[C@@H]1C (stereo partly drawn) |  |  |  |  |  |  |  |  |  |  |  | 121 | 119 | 112 | 108 | 117 | 128 | 98.3 | 66.6 | 29.8 | 18.7 | 14.3 |  |  |  |  |  |  |  |  |  |  | 
Cc1c(N)nc([C@H](CC(N)=O)NC[C@@H](N)C(N)=O)nc1C(=O)N[C@H](C(=O)N[C@@H](C)[C@H](O)[C@@H](C)C(=O)N[C@@H](C(=O)NCCc1nc(-c2nc(C(=O)NCCC[S+](C)C)cs2)cs1)[C@@H](C)O)C(O[C@H]1O[C@H](CO)[C@H](O)[C@@H](O)[C@H]1O[C@H]1O[C@H](CO)[C@@H](O)[C@H](OC(N)=O)[C@@H]1O)c1c[nH]cn1 (stereo partly drawn) | 110 | 115 | 115 | 113 | 101 | 128 | 121 | 82.9 | 61.9 | 67.2 | 74.2 | 99.2 | 109 | 107 | 114 | 89.7 | 121 | 113 | 61.8 | 64.9 | 29.7 | 17.7 | 89.6 | 110 | 99.3 | 111 | 88.4 | 113 | 91.5 | 81.8 | 54.3 | 16.9 | 14.8
